Results: the supplement of paper PMC10307832

Columns and labels:
Experiment in all cases: relative viability (nuclei count vs DMSO), 5 days (fraction); higher = more cells survive
[1] = compound: C1=CC=C(C(=C1)C2=CC=C(C=C2)C3=CSC4=C3C(=C(C(=O)N4)C#N)O)O + Cc1cc(Nc2cc(N3CCN(C)CC3)nc(Sc3ccc(NC(=O)C4CC4)cc3)n2)n[nH]1 [Tozasertib] (partner 0.1 µM)
Outline: (§1)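 Lung cancer cell lines were seeded in 1536-well plates and dosed by pin tool the next day, with either a single drug or a fixed anchor-drug dose combined with five library-drug doses (not always all listed) spaced in √10 steps. Five days later, one step fixed the cells and stained their nuclei (final 0.05% Triton X-100, 1% formaldehyde, 1 ug/ml Hoechst), and nuclei were counted on 4× images. Relative viability is the nuclei count in treated wells divided by the count in vehicle wells, and each value is the median of duplicate plates.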

TGX 221 + Luminespib = compound: CC1=CN2C(=O)C=C(N=C2C(=C1)C(C)NC3=CC=CC=C3)N4CCOCC4 [TGX 221] + CCNC(=O)c1noc(-c2cc(C(C)C)c(O)cc2O)c1-c1ccc(CN2CCOCC2)cc1 [Luminespib] (partner 0.01 µM)
Outline: as §1

TGX 221 + Tozasertib = compound: CC1=CN2C(=O)C=C(N=C2C(=C1)C(C)NC3=CC=CC=C3)N4CCOCC4 [TGX 221] + Cc1cc(Nc2cc(N3CCN(C)CC3)nc(Sc3ccc(NC(=O)C4CC4)cc3)n2)n[nH]1 [Tozasertib] (partner 0.1 µM)
Outline: as §1

Ricolinostat + AZD7762 = compound: O=C(CCCCCCNC(=O)c1cnc(N(c2ccccc2)c2ccccc2)nc1)NO [Ricolinostat] + NC(=O)Nc1cc(-c2cccc(F)c2)sc1C(=O)N[C@H]1CCCNC1 [AZD7762] (partner 0.2 µM)
Outline: as §1

| Cell Line | relative viability ([1]; first compound 0.08 µM) | relative viability ([1]; first compound 0.253 µM) | relative viability ([1]; first compound 0.8 µM) | relative viability ([1]; first compound 2.53 µM) | relative viability ([1]; first compound 8 µM) | relative viability (TGX 221 + Luminespib; first compound 0.08 µM) | relative viability (TGX 221 + Luminespib; first compound 0.253 µM) | relative viability (TGX 221 + Luminespib; first compound 0.8 µM) | relative viability (TGX 221 + Luminespib; first compound 2.53 µM) | relative viability (TGX 221 + Luminespib; first compound 8 µM) | relative viability (TGX 221 + Tozasertib; first compound 0.08 µM) | relative viability (TGX 221 + Tozasertib; first compound 0.253 µM) | relative viability (TGX 221 + Tozasertib; first compound 0.8 µM) | relative viability (TGX 221 + Tozasertib; first compound 2.53 µM) | relative viability (TGX 221 + Tozasertib; first compound 8 µM) | relative viability (Ricolinostat + AZD7762; first compound 0.08 µM) | relative viability (Ricolinostat + AZD7762; first compound 0.253 µM) | relative viability (Ricolinostat + AZD7762; first compound 0.8 µM) | relative viability (Ricolinostat + AZD7762; first compound 2.53 µM) |
| --- | --- | --- | --- | --- | --- | --- | --- | --- | --- | --- | --- | --- | --- | --- | --- | --- | --- | --- | --- |
| NCI-H2170 | 0.71 | 0.709 | 0.875 | 0.721 | 0.634 | 0.67 | 0.638 | 0.541 | 0.593 | 0.639 | 0.658 | 0.666 | 0.626 | 0.731 | 0.67 | 0.815 | 0.858 | 1.01 | 0.928 |
| LU99A | 0.274 | 0.256 | 0.275 | 0.298 | 0.279 | 0.251 | 0.31 | 0.208 | 0.249 | 0.316 | 0.24 | 0.274 | 0.258 | 0.282 | 0.276 | 0.324 | 0.378 | 0.253 | 0.159 |
| ChaGo-K-1 | 0.242 | 0.238 | 0.239 | 0.232 | 0.208 | 0.584 | 0.617 | 0.574 | 0.559 | 0.505 | 0.22 | 0.202 | 0.216 | 0.219 | 0.191 | 0.842 | 0.901 | 0.862 | 0.798 |
| NCI-H358 | 0.107 | 0.112 | 0.104 | 0.0911 | 0.114 | 0.285 | 0.37 | 0.319 | 0.007 | 0.29 | 0.097 | 0.0915 | 0.103 | 0.108 | 0.0944 |  | 0.519 | 0.414 | 0.312 |
| LK-2 |  | 0.152 | 0.149 | 0.198 | 0.198 | 0.17 | 0.2 | 0.187 | 0.214 | 0.207 | 0.203 | 0.202 | 0.182 | 0.187 | 0.161 | 0.254 | 0.375 | 0.38 | 0.348 |
